From patent US20080207522A1, “Antimicrobial Peptides” (priority 2004, published 2008)
Like-named read-outs stand apart in the source and are kept apart here. Ends that are not written are not given here.

Experiments:
[1] = system: Staphylococcus aureus ATCC25923
Method: (§1) Minimal inhibitory concentration (MIC) determination. The MICs of the peptides were measured using a modified broth microdilution method in Mueller Hinton (MH) medium. Wu et al., J. Biol. Chem. 274: 29-35, 1999. Briefly, the peptides were dissolved and stored in glass vials. The assay was performed in sterile 96-well polypropylene microtitre plates were used. Serial dilutions of the peptides to be assayed were performed in 0.01% acetic acid (Fisher) containing 0.2% bovine serum albumin (Boehringer Mannheim GmbH) at 10× the desired final concentration. Ten microlitres of the 10× peptides were added to each well of a 96-well polypropylene plate containing 90 μl of MH media per well. Bacteria were added to the plate from an overnight culture at 2-7×10^5 colony forming units/ml and incubated over night at 37° C. The MIC was taken as the concentration at which no growth was observed.
(§2) Strains. For the killing assay a mini-Tn5-lux mutant in Pseudomonas aeruginosa H103 was used. The strain is called H1001 and contains a fliC::luxCDABE transcriptional fusion resulting in constitutive expression of luciferase. The bacterial strains used for the antimicrobial activity assays included Escherichia coli UB1005 (F-, nalA37, metB1), a wild-type Salmonella enterica ssp. Typhimurium (S. Typhimurium), wild-type Pseudomonas aeruginosa PAO1 strain H103, Enterococcus faecalis ATCC29212, Staphylococcus aureus ATCC25923, and a clinical isolate of Staphylococcus epidermidis obtained from Dr. D. Speert (Department of Medicine, University of British Columbia). Antifungal activity was tested using a lab isolate of Candida albicans obtained from Dr. B. Dill (Department of Microbiology and Immunology, University of British Columbia).
(§3) In addition, the parent peptide Bac2A was included in these studies as a standard. The minimal inhibitory concentrations (MIC) were determined for the important medical pathogens Pseudomonas aeruginosa, Escherichia coli, Salmonella typhimurium, Staphylococcus aureus, Staphylococcus epidermidis, Enterococcus faecaelis, and the yeast Candida albicans in Mueller-Hinton media.

[2] = system: Enterococcus faecalis ATCC29212
Method: as §1, §2, §3

[3] = system: Candida albicans
Method: as §1, §2, §3

[4] = system: Staphylococcus epidermidis; conditions: for MIC S. epi.: Table 6
Method: as §1, §2, §3

[5] = system: Escherichia coli UB1005; conditions: Table 6
Method: as §1, §2, §3

[6] = system: Salmonella enterica ssp. Typhimurium; conditions: for MIC S. Typhim.: Table 6; for MIC S. typhimurium: ssp. Typhimurium
Method: as §1, §2, §3

[7] = system: Pseudomonas aeruginosa PAO1 strain H103; conditions: for MIC P. aerug: Table 6; for MIC P. aeruginosa / MIC P. aeruginosa Muller Hinton Media / MIC P. aeruginosa With 10 μM Mg / MIC P. aeruginosa With 2 mM Mg: PAO1
Method: as §1, §2, §3

[8] = system: Pseudomonas aeruginosa strain H1001 fliC::luxCDABE; assay: Luminescence-based assay for the non-cleaved (bound) peptides on cellulose membranes; assay type: cell-based; conditions: for Luminescence at the given time in minutes: 0 / Luminescence at the given time in minutes: 20 / Luminescence at the given time in minutes: 40 / Luminescence at the given time in minutes: 60 / Luminescence at the given time in minutes: 80 / Luminescence at the given time in minutes: 100 / Luminescence at the given time in minutes: 120 / Luminescence at the given time in minutes: 180 / Luminescence at the given time in minutes: 240: cellulose-bound peptide; for Luminescence at the given time in minutes: 0: 0 min; for Luminescence at the given time in minutes: 20: 20 min; for Luminescence at the given time in minutes: 40: 40 min; for Luminescence at the given time in minutes: 60: 60 min; for Luminescence at the given time in minutes: 80: 80 min; for Luminescence at the given time in minutes: 100: 100 min; for Luminescence at the given time in minutes: 120: 120 min; for Luminescence at the given time in minutes: 180: 180 min; for Luminescence at the given time in minutes: 240: 240 min; for Activity Class bound: uncleaved cellulose-bound peptides
How it was run: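 Peptides remained bound to cellulose spots, which were ethanol-washed and equilibrated in 100 mM Tris pH 7.3. Constitutively lux-expressing P. aeruginosa (OD600 0.35 culture diluted 1:25) added in 10 mM Tris-HCl pH 7.3, 20 mM glucose at 37° C. Luminescence (RLU) followed over 14 time points; peptides binned into six activity classes.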

[9] = system: Pseudomonas aeruginosa strain H1001; assay: Assay for the cleaved (free, soluble) peptides from cellulose support, luminescence killing assay; assay type: cell-based; parameters: key: 1: Peptides showing stronger killing than Bac2A at a 4 to 8-fold higher dilution; Peptides showing stronger killing compared to that of Bac2A at a 4-fold higher dilution; 3: Peptides similar to Bac2A; 4: Peptides similar to Bac2A at the highest concentration but demonstrating weaker killing at a 2-fold dilution; 5: Peptides giving very weak or no killing at a 2-fold dilution; 6: Peptides with weak killing activity at the highest concentration; conditions: for Soluble Class: Table 5, free peptides; for Activity Class Soluble: free (cleaved) peptides, killing relative to Bac2A
How it was run: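 Cellulose-synthesized peptides (amidated C-terminus, two β-alanines) cleaved by ammonia, released from punched spots 30 min at 37 °C, then serially diluted. P. aeruginosa H1001 (constitutive fliC::luxCDABE) overnight culture diluted 1:500 in LB or 100 mM Tris pH 7.3/20 mM glucose. Killing followed as time-dependent luminescence loss at 37 °C.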

Substance | MIC S. aureus ([1]; Table 6) | MIC E. faecalis ([2]; Table 6) | MIC C. albicans ([3]; Table 6) | MIC S. epi. [4] | MIC E. coli [5] | MIC S. Typhim. [6] | MIC P. aerug [7] | MIC S. aureus ([1]; ATCC25923) | MIC E. faecalis ([2]; ATCC29212) | MIC C. albicans [3] | MIC S. epidermidis [4] | MIC S. typhimurium [6] | MIC P. aeruginosa [7] | MIC P. aeruginosa Muller Hinton Media [7] | MIC P. aeruginosa With 10 μM Mg [7] | MIC P. aeruginosa With 2 mM Mg [7] | Luminescence at the given time in minutes: 0 [8] | Luminescence at the given time in minutes: 20 [8] | Luminescence at the given time in minutes: 40 [8] | Luminescence at the given time in minutes: 60 [8] | further results
Bac118: peptide of Table 6 (substitution peptides and truncation variants of Bac2A); sequence in Table 1 (RIVVIRV) | n.s. | n.s. | n.s. | n.s. | n.s. | n.s. | n.s. |  |  |  |  |  |  |  |  |  |  |  |  |  | 
ILRRVRVRAVAI-NH2 (C-terminus assumed) [Bac022] |  |  |  |  |  |  |  | 125 µg/mL | 272 µg/mL | 272 µg/mL | 136 µg/mL | 272 µg/mL | 250 µg/mL | 250 µg/mL | 250 µg/mL | >250 µg/mL | 4336 RLU | 7179 RLU | 5180 RLU | 4505 RLU | Luminescence at the given time in minutes: 80 [8]: 3675 RLU; Luminescence at the given time in minutes: 100 [8]: 3365 RLU; Luminescence at the given time in minutes: 120 [8]: 3044 RLU; Luminescence at the given time in minutes: 180 [8]: 2912 RLU; Luminescence at the given time in minutes: 240 [8]: 2966 RLU; Activity Class bound [8]: 5 (Peptides reducing luminescence (lux) values to between 1500 to 3000 after 240 min.); Soluble Class [9]: 6; Activity Class Soluble [9]: 6
VIRRRRILAAVV-NH2 (C-terminus assumed) [Bac044] |  |  |  |  |  |  |  | 250 µg/mL | > 272 µg/mL | 136 µg/mL | 113 µg/mL | 113 µg/mL | > 250 µg/mL | >250 µg/mL | 250 µg/mL | >250 µg/mL | 5592 RLU | 7069 RLU | 5932 RLU | 5652 RLU | Luminescence at the given time in minutes: 80 [8]: 5206 RLU; Luminescence at the given time in minutes: 100 [8]: 5008 RLU; Luminescence at the given time in minutes: 120 [8]: 4999 RLU; Luminescence at the given time in minutes: 180 [8]: 5060 RLU; Luminescence at the given time in minutes: 240 [8]: 5195 RLU; Activity Class bound [8]: 6 (Peptides having residual luminescence (lux) values greater than 3000 after 240 min.); Soluble Class [9]: 6; Activity Class Soluble [9]: 6
Bac112: peptide of Table 6 (substitution peptides and truncation variants of Bac2A); sequence in Table 1 (ARIVVIRV) | n.s. | n.s. | n.s. | n.s. | n.s. | n.s. | n.s. |  |  |  |  |  |  |  |  |  |  |  |  |  | 
RAVAVIIRLRRV-NH2 (C-terminus assumed) [Bac014] |  |  |  |  |  |  |  | 13 µg/mL | 11 µg/mL | 8 µg/mL | 8 µg/mL | 11 µg/mL | 33 µg/mL | 33 µg/mL | 16 µg/mL | 63 µg/mL | 5233 RLU | 8217 RLU | 7835 RLU | 7867 RLU | Luminescence at the given time in minutes: 80 [8]: 8100 RLU; Luminescence at the given time in minutes: 100 [8]: 8931 RLU; Luminescence at the given time in minutes: 120 [8]: 8956 RLU; Luminescence at the given time in minutes: 180 [8]: 10738 RLU; Luminescence at the given time in minutes: 240 [8]: 12876 RLU; Soluble Class [9]: 1; Activity Class Soluble [9]: 1
Bac241: peptide of Table 6 (substitution peptides and truncation variants of Bac2A); sequence in Table 1 (RLERIVVIRVAR) | n.s. | n.s. | n.s. | n.s. | n.s. | n.s. | n.s. |  |  |  |  |  |  |  |  |  |  |  |  |  | 
VRLRIRVAVIRA-NH2 (C-terminus assumed) [Bac034] |  |  |  |  |  |  |  | 5 µg/mL | 11 µg/mL | 8 µg/mL | 4 µg/mL | 6 µg/mL | 10 µg/mL | 10 µg/mL | 4 µg/mL | 16 µg/mL | 5305 RLU | 6449 RLU | 4160 RLU | 1454 RLU | Luminescence at the given time in minutes: 80 [8]: 390 RLU; Luminescence at the given time in minutes: 100 [8]: 157 RLU; Luminescence at the given time in minutes: 120 [8]: 64 RLU; Luminescence at the given time in minutes: 180 [8]: 60 RLU; Luminescence at the given time in minutes: 240 [8]: 63 RLU; Activity Class bound [8]: 3 (Peptides similar to Bac2A resulting in lux values of less than 500 after 240 min.); Soluble Class [9]: 1; Activity Class Soluble [9]: 1
Bac297: peptide of Table 6 (substitution peptides and truncation variants of Bac2A); sequence in Table 1 (RLARICVIRVAR) | n.s. | n.s. | n.s. | n.s. | n.s. | n.s. | n.s. |  |  |  |  |  |  |  |  |  |  |  |  |  | 
Bac109: peptide of Table 6 (substitution peptides and truncation variants of Bac2A); sequence in Table 1 (RIVVIRVAR) | n.s. | n.s. | n.s. | n.s. | n.s. | n.s. | n.s. |  |  |  |  |  |  |  |  |  |  |  |  |  | 
